Test results: the NIST ThermoML archive (doi:10.1016/j.fluid.2009.08.017)
± gives the expanded uncertainty stated by the source.

Experiment: activity coefficient (dimensionless); of the first substance listed, at infinite dilution; xn = mol fraction of the nth substance listed
Settings: 101 kPa, Liquid, Chromatography, x1 = 0

SMILES	activity coefficient (298.15 K)	activity coefficient (308.15 K)	activity coefficient (318.15 K)	activity coefficient (328.15 K)	activity coefficient (338.15 K)	activity coefficient (348.15 K)	activity coefficient (358.15 K)	activity coefficient (368.15 K)
CCCCCCCCC [nonane] + CCCCCCOCn1cc[n+](C)c1.O=S(=O)([N-]S(=O)(=O)C(F)(F)F)C(F)(F)F	17.8 ± 1.2	16.6 ± 1.1	15.5 ± 1.1	14.6 ± 1	13.8 ± 0.9	13.2 ± 0.9	12.4 ± 0.8	11.9 ± 0.8
CCCCCCCCC [nonane] + CCCCCCOCn1cc[n+](COCCCCCC)c1.O=S(=O)([N-]S(=O)(=O)C(F)(F)F)C(F)(F)F	5.93 ± 0.4	5.67 ± 0.39	5.42 ± 0.37	5.22 ± 0.36	5.01 ± 0.34	4.84 ± 0.33	4.68 ± 0.32	4.53 ± 0.31
C=CCCCCCC [oct-1-ene] + CCCCCCOCn1cc[n+](C)c1.O=S(=O)([N-]S(=O)(=O)C(F)(F)F)C(F)(F)F	7.97 ± 0.54	7.67 ± 0.52	7.39 ± 0.5	7.12 ± 0.49	6.89 ± 0.47	6.69 ± 0.46	6.5 ± 0.44	6.34 ± 0.43
C=CCCCCCC [oct-1-ene] + CCCCCCOCn1cc[n+](COCCCCCC)c1.O=S(=O)([N-]S(=O)(=O)C(F)(F)F)C(F)(F)F	3.28 ± 0.22	3.2 ± 0.22	3.12 ± 0.21	3.05 ± 0.21	2.99 ± 0.2	2.93 ± 0.2	2.87 ± 0.2	2.83 ± 0.19
CCCCCCCC [octane] + CCCCCCOCn1cc[n+](C)c1.O=S(=O)([N-]S(=O)(=O)C(F)(F)F)C(F)(F)F	13.6 ± 0.9	12.8 ± 0.9	12.1 ± 0.8	11.5 ± 0.8	10.9 ± 0.7	10.4 ± 0.7	10 ± 0.7	9.51 ± 0.65
CCCCCCCC [octane] + CCCCCCOCn1cc[n+](COCCCCCC)c1.O=S(=O)([N-]S(=O)(=O)C(F)(F)F)C(F)(F)F	4.8 ± 0.33	4.62 ± 0.31	4.45 ± 0.3	4.3 ± 0.29	4.16 ± 0.28	4.03 ± 0.27	3.92 ± 0.27	3.81 ± 0.26
CCCCC [pentane] + CCCCCCOCn1cc[n+](C)c1.O=S(=O)([N-]S(=O)(=O)C(F)(F)F)C(F)(F)F	7.34 ± 0.5	6.93 ± 0.47	6.54 ± 0.45	6.25 ± 0.43	5.92 ± 0.4	5.68 ± 0.39	5.43 ± 0.37	5.21 ± 0.36
CCCCC [pentane] + CCCCCCOCn1cc[n+](COCCCCCC)c1.O=S(=O)([N-]S(=O)(=O)C(F)(F)F)C(F)(F)F	2.78 ± 0.19	2.69 ± 0.18	2.62 ± 0.18	2.54 ± 0.17	2.48 ± 0.17	2.43 ± 0.17	2.38 ± 0.16	2.33 ± 0.16
CCCO [propan-1-ol] + CCCCCCOCn1cc[n+](C)c1.O=S(=O)([N-]S(=O)(=O)C(F)(F)F)C(F)(F)F	1.83 ± 0.12	1.64 ± 0.11	1.49 ± 0.1	1.36 ± 0.09	1.24 ± 0.08	1.15 ± 0.07	1.07 ± 0.07	0.989 ± 0.062
CCCO [propan-1-ol] + CCCCCCOCn1cc[n+](COCCCCCC)c1.O=S(=O)([N-]S(=O)(=O)C(F)(F)F)C(F)(F)F	1.31 ± 0.09	1.19 ± 0.08	1.09 ± 0.07	1 ± 0.063	0.929 ± 0.059	0.861 ± 0.055	0.803 ± 0.052	0.752 ± 0.049
